Reference: publication PMC7483518, “Destabilizing single chain major histocompatibility complex class I protein for repurposed enterokinase proteolysis” (Scientific Reports, 2020)
Like-named read-outs stand apart in the source and are kept apart here.

Columns and labels:
[1] = target: photolabile unchained HLA-A*11:01 pMHC-I protein (Homo sapiens, UniProt P04439, A114D/D185E/E176A/F33Y/L180Q/S129P/T187R); experiment: ELISA with photolabile unchained pMHC-I protein and UV irradiation; type: binding; conditions: for ELISA450nm: Table 2, 62.5 nM photolabile pMHC-I mixture, 5 μM peptide in PBS, UV 365 nm 2 × 5 min on ice, 2 h room temperature on anti-β2m plate, Abs450nm − Abs570nm, instability cutoff < 0.6
[2] = tested on: HLA-A*11:01 single chain protein; type: biochemical, Human; set-up: EZ50kDa / EZ50kD (pH 6.2) / EZ50kD (pH 8) / EZ50kD (normalised: EBV1101 = 1, EBV0201 = 0) / EZ50kDa rank: unit not given beside the values; conditions: for EZ50kDa rank: HLA-A*11:01 single chain protein, 9-mer peptides;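 on EZ50kD (pH 6.2): scaled with positive control peptide as 1 and negative control peptide as 0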
[3] = EASY MHC-I A*11:01, 2019-07-25, mean of the 2 replicates

| Sequence | ELISA450nm [1] | EZ50kD (pH 6.2) ([2]; pH 6.2) | also measured |
| --- | --- | --- | --- |
| GSLLDYVREH [CS1026] | – | – | EASY_mean [1]: -0.04117 |
| GSLLDYVREHKD [CS1049] | – | – | EASY_mean [1]: -0.02126 |
| ICLTSTVQLIM [TM1028] | – | – | EASY_mean ([1]; […], mean, STDEV): -0.04901; EZ_mean [2]: -0.09759 |
| ICLTSTVQLIMQ [TM1039] | – | – | EASY_mean ([1]; ELISA signal, mean, […]): -0.09515; EZ_mean [2]: -0.1704 |
| IKTSPKAN [EX1002] | – | – | EASY_mean [1]: -0.005748; EZ_mean [2]: -0.02894 |
| IKTSPKANK [EX1007] | – | – | EASY_mean ([1]; […], mean, STDEV): -0.0128; EZ_mean [2, 3]: -0.05095 |
| IKTSPKANKE [EX1013] | – | – | EASY_mean ([1]; […], mean, STDEV): -0.007577; EZ_mean [2, 3]: -0.04249 |
| KFLPDLYDYK [reference compound] | 0.4809 | – | – |
| KSGAIKVLK [reference compound] | – | 0.819 | EZ50kD (pH 8) [2]: 0.4865 |
| KTFVDLMRR [reference compound] | – | 0.8241 | EZ50kD (pH 8) [2]: 0.165 |
| LLAQFTSAL [putative peptide, HBV, no IEDB entry] | 0.214 | – | – |
| LMPFGSLLDYVR [CS1045] | – | – | EASY_mean [1]: 0.002285 |
| LNIDLLWSV [reference compound] | 0.2738 | – | – |
| LVSFLLLAGR [reference compound] | – | – | EZ50kD (pH 8) [2]: 0.07206 |
| LVVDFSQFSR [reference compound] | – | – | EZ50kD (pH 6.2) ([2]; Table 2, pH 6.2, 37 °C, enterokinase, Eq. (4), instability cutoff < 0.3): 0.9461 |
| MANEMGFLEK [reference compound] | – | 0.527 | – |
| MATYGWNLVK [reference compound] | – | 0.6384 | EZ50kD (pH 8) [2]: 0.007553 |
| MSYTMCSGK [reference compound] | – | 1.198 | EZ50kDa rank ([2]; pH 6.2, 37 °C): 1.198; EZ50kD (pH 8) [2]: 1.094 |
| MVSRLLLNR [reference compound] | – | 1.196 | EZ50kD (pH 8) [2]: 0.2396 |
| MVWESGCTV [IEDB 140,054, Human; a known HLA-A*02:01 antigen, reference compound] | 0.5937 | – | – |
| NILNPFLPLL [putative peptide, HBV, no IEDB entry] | 0.2827 | – | – |

| Sequence | ELISA450nm [1] | EZ50kD (pH 6.2) ([2]; pH 6.2) | also measured |
| --- | --- | --- | --- |
| PFGSLLDYVRE [CS1035] | – | – | EASY_mean [1]: -0.00332 |
| PFGSLLDYVREH [CS1047] | – | – | EASY_mean [1]: -0.01054 |
| RSQSPRRR [putative peptide, HBV, no IEDB entry] | 0.1859 | – | – |
| RTLSPRRR [putative peptide, Streptomyces sp, no IEDB entry] | 0.1209 | – | – |
| RTLSPRRRR [putative peptide, HBV, no IEDB entry] | 0.8658 | – | – |
| RTQSPRRR [reference compound] | 0.3319 | – | – |
| RTQSPRRRR [reference compound] | 1.204 | – | – |
| STLPETTVIR [putative peptide, HBV, no IEDB entry] | 1.302 | – | – |
| SVQPTFSVQR [reference compound] | – | 1.051 | EZ50kD (pH 8) [2]: 0.7376 |
| TLALEVAQQK [reference compound] | – | 0.7399 | EZ50kD (pH 8) [2]: 0.4517 |
| TMVMELIRMIK [reference compound] | 0.748 | – | – |
| TSGSPIIDK [reference compound] | – | 0.7953 | EZ50kDa rank ([2]; pH 6.2, 37 °C): 0.795; EZ50kD (pH 8) [2]: 0.1596 |
| TTKRDLGMSK [reference compound] | – | 0.796 | EZ50kD (pH 8) [2]: 0.3796 |
| TTYLGPLSCK [reference compound] | – | 1.084 | EZ50kD (pH 8) [2]: 1.911 |
| TVIRRRGR [reference compound] | 0.1482 | – | – |
| TVVGRRGRSPR [putative peptide, HBV, no IEDB entry] | 1.259 | – | – |
| TVVRRRCR [putative peptide, HBV, no IEDB entry] | 0.4625 | – | – |
| TVVRRRCRSPR [putative peptide, HBV, no IEDB entry] | 0.4145 | – | – |
| VTRGAVLMHK [reference compound] | – | 0.6228 | – |
| YVSAIAQTEK [reference compound] | – | 0.3037 | – |
